Columns and labels:
[1] = target: T1, recombinant human dopamine D2L receptors (Homo sapiens, UniProt P14416); experiment: Dopamine Binding Assay; details: HEK-D2L cell membranes, 150 pM [3H]-spiperone, Cheng and Prusoff
T1 construct: expressed in transfected cells; host or cells: HEK-293 (HEK-D2L), membrane homogenates
Description: HEK-293 cells that stably express recombinant human dopamine D2L receptors (HEK-D2L cells) were grown at 37° C. in 5% CO2 as a monolayer in medium consisting of EMEM supplemented with 10% fetal bovine serum and G418 sulfate (500 μg/ml). To prepare membranes for radioligand binding experiments, cells were rinsed twice with phosphate-buffered saline (138 mM NaCl, 4.1 mM KCl, 5.1 mM Na2PO4, 1.5 mM KH2PO2 11.1 mM glucose, pH 7.4), and incubated for 5-10 min. at 4° C. in hypotonic lysis buffer consisting of 10 mM Tris (pH 7.4) and 5 mM EDTA. Cells were transferred from plates to polypropylene tubes (16×100 mm), homogenized and centrifuged at 32,000×g for 20 min. Following centrifugation, pellets were resuspended by homogenization in buffer consisting of 50 mM Tris (pH 7.7 at 25° C.) and 1 mM EDTA. Homogenates were stored at −80° C. until needed. On the day of an experiment, homogenates were thawed then centrifuged at 32,000×g for 20 min. Following centrifugation, supernatants were discarded and pellets were resuspended in assay buffer consisting of 50 mM Tris (pH 7.4 at 25° C.), 1 mM EDTA and 6 mM MgCl2. Membrane homogenates (˜5 μg) were incubated with 150 pM [^3H]-spiperone (Amersham Life Science) and increasing concentrations of test compounds for 1.5 hr at 22° C. in a total volume of 400 μl. Reactions were stopped by addition of ice-cold assay buffer and filtration over glass fiber filters (Whatman GFB, pre-soaked in 0.05% polyethylenimine) using a microtitre format Brandel cell harvester. Filters were washed with 3 ml of ice-cold assay buffer. Non-specific binding was defined with 2 μM (+)butaclamol. Ki values were calculated using the method of Cheng and Prusoff (1973). Protein concentrations were determined by the method of Bradford (1976) with BSA as a standard.

[2] = target: T2, human serotonin transporters (Homo sapiens, UniProt P31645); experiment: Serotonin Transporter Binding Assay; details: HEK-hSERT cell membranes, 1 nM [3H]-citalopram, Cheng and Prusoff; read-out: SERT Ki
T2 construct: expressed in transfected cells; host or cells: HEK-293 (HEK-hSERT), membrane homogenates
T2 sequence (P31645 whole entry): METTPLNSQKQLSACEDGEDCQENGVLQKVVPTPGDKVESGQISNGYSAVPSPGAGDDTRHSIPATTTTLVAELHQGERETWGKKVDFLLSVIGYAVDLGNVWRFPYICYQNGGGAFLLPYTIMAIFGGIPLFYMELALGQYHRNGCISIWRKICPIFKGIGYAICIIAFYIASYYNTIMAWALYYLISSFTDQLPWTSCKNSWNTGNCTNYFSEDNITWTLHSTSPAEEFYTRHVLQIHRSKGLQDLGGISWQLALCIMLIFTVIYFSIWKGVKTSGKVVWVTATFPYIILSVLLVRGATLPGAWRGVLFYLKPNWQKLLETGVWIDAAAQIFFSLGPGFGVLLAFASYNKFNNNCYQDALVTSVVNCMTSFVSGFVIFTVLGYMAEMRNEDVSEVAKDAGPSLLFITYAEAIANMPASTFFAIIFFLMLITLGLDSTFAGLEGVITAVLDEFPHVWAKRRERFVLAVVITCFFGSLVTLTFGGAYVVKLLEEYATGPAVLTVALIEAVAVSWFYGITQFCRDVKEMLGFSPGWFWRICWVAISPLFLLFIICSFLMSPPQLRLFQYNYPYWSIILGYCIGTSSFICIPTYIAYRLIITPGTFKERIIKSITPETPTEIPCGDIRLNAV
Description: HEK-293 cells that stably express human serotonin transporters (HEK-hSERT cells) were grown at 37° C. in 5% CO2 as a monolayer in medium consisting of EMEM supplemented with 10% fetal bovine serum and G418 sulfate (500 μg/ml). To prepare membranes for radioligand binding experiments, cells were rinsed twice with phosphate-buffered saline (138 mM NaCl, 4.1 mM KCl, 5.1 mM Na2PO4, 1.5 mM […], 11.1 mM glucose, pH 7.4). Cells were transferred from plates to polypropylene tubes (16×100 mm), centrifuged at 1,200×g for 5 min and were frozen at −80° C. until assay. Following centrifugation, pellets were resuspended by homogenization in buffer consisting of 50 mM Tris (pH 7.7 at 25° C.), 120 mM NaCl and 5 mM KCl and then centrifuged at 32,000×g for 10 min. Following centrifugation, supernatants were discarded and pellets were resuspended in buffer consisting of 50 mM Tris (pH 7.4 at 25° C.), 150 mM NaCl and 5 mM KCl. Membrane homogenates (200 μl/plate) were incubated with 1 nM [^3H]-citalopram (specific activity=85 Ci/mmol) and increasing concentrations of test compounds for 1 hr at 25° C. in a total volume of 250 μl. The assay buffer consisted of 50 mM Tris (pH 7.4 at 25° C.), 120 mM NaCl and 5 mM KCl (pH 7.4 with conc. HCl). Plates were incubated for 1 hr at 25° C., then filtered through 0.5% PEI treated Whatman GF/B filters using a Brandel cell harvester. Filters were washed three times with 3 ml of ice-cold tris wash buffer. Non-specific binding was defined with 10 μM fluoxetine. Amount of radioligand bound in the presence and absence of competitor was analyzed by plotting (−)log drug concentration versus the amount of radioligand specifically bound. The midpoint of the displacement curve (IC50, nM), signifies the potency. Ki values were calculated using the method of Cheng and Prusoff (1973).

T1 sequence (P14416 whole entry): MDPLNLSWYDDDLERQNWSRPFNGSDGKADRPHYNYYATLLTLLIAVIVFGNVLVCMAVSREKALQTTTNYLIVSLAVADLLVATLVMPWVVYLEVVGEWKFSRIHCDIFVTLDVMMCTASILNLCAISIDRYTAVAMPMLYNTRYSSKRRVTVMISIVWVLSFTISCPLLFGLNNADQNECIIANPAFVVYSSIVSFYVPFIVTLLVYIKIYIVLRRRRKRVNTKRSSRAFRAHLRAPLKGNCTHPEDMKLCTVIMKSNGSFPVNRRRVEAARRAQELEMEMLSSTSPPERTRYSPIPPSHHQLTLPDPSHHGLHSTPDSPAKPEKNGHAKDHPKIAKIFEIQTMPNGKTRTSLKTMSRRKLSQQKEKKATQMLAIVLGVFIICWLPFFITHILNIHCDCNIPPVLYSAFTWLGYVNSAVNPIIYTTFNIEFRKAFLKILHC

Row | Compound | Ki [1] [nM] | Ki [2] [nM]
1 | CCCOC(=O)NCCN(C)C[C@@H]1C[C@H]1c1c[nH]c2ccc(C#N)cc12 (relative stereo) [Example 88, trans-2-[5-Cyanoindol-3-yl]-1-[N,N-methyl-2-amino(propylcarbamoyl)ethylaminomethyl]-cyclopropane] | > 1000 | 1 to 10
2 | COC(=O)NCCCN(C)C[C@@H]1C[C@H]1c1c[nH]c2ccc(C#N)cc12 (relative stereo) [Example 89, trans-2-[5-Cyanoindol-3-yl]-1-[N,N-methyl-2-amino(methylcarbamoyl)propylaminomethyl]-cyclopropane] | > 1000 | 1 to 10
3 | CCOC(=O)NCCCN(C)C[C@@H]1C[C@H]1c1c[nH]c2ccc(C#N)cc12 (relative stereo) [Example 90, trans-2-[5-Cyanoindol-3-yl]-1-[N,N-methyl-2-amino(ethylcarbamoyl)propylaminomethyl]-cyclopropane] | 100 to 1000 | 1 to 10
4 | CCCOC(=O)NCCCN(C)C[C@@H]1C[C@H]1c1c[nH]c2ccc(C#N)cc12 (relative stereo) [Example 91, trans-2-[5-Cyanoindol-3-yl]-1-[N,N-methyl-2-amino(propylcarbamoyl)propylaminomethyl]-cyclopropane] | 10 to 100 | 1 to 10
5 | CCN(CCNC(=O)OC)C[C@@H]1C[C@H]1c1c[nH]c2ccc(C#N)cc12 (relative stereo) [Example 93, trans-2-[5-Cyanoindol-3-yl]-1-[N,N-ethyl-2-amino(methylcarbamoyl)ethylaminomethyl]-cyclopropane] | > 1000 | 1 to 10
6 | CCOC(=O)NCCN(CC)C[C@@H]1C[C@H]1c1c[nH]c2ccc(C#N)cc12 (relative stereo) [Example 94, trans-2-[5-Cyanoindol-3-yl]-1-[N,N-ethyl-2-amino(ethylcarbamoyl)ethylaminomethyl]-cyclopropane] | > 1000 | < 1
7 | CCCOC(=O)NCCN(CC)C[C@@H]1C[C@H]1c1c[nH]c2ccc(C#N)cc12 (relative stereo) [Example 95, trans-2-[5-Cyanoindol-3-yl]-1-[N,N-ethyl-2-amino(propylcarbamoyl)ethylaminomethyl]-cyclopropane] | > 1000 | 1 to 10
8 | CCN(CCNC(=O)OC(C)C)C[C@@H]1C[C@H]1c1c[nH]c2ccc(C#N)cc12 (relative stereo) [Example 96, trans-2-[5-Cyanoindol-3-yl]-1-[N,N-ethyl-2-amino(isopropylcarbamoyl)ethylaminomethyl]-cyclopropane] | 100 to 1000 | 1 to 10
9 | CCN(CCCNC(=O)OC)C[C@@H]1C[C@H]1c1c[nH]c2ccc(C#N)cc12 (relative stereo) [Example 97, trans-2-[5-Cyanoindol-3-yl]-1-[N,N-ethyl-2-amino(methylcarbamoyl)propylaminomethyl]-cyclopropane] | 100 to 1000 | 1 to 10
10 | CCOC(=O)NCCCN(CC)C[C@@H]1C[C@H]1c1c[nH]c2ccc(C#N)cc12 (relative stereo) [Example 98, trans-2-[5-Cyanoindol-3-yl]-1-[N,N-ethyl-2-amino(ethylcarbamoyl)propylaminomethyl]-cyclopropane] | 100 to 1000 | 1 to 10
11 | CCCOC(=O)NCCCN(CC)C[C@@H]1C[C@H]1c1c[nH]c2ccc(C#N)cc12 (relative stereo) [Example 99, trans-2-[5-Cyanoindol-3-yl]-1-[N,N-ethyl-2-amino(propylcarbamoyl)propylaminomethyl]-cyclopropane] | 100 to 1000 | 1 to 10
12 | CCN(CCCNC(=O)OC(C)C)C[C@@H]1C[C@H]1c1c[nH]c2ccc(C#N)cc12 (relative stereo) [Example 100, trans-2-[5-Cyanoindol-3-yl]-1-[N,N-ethyl-2-amino(isopropylcarbamoyl)propylaniinomethyl]-cyclopropane] | > 1000 | 10 to 100
13 | CCCOC(=O)NCCN(C)C[C@@H]1C[C@H]1c1c[nH]c2ccc(F)cc12 (relative stereo) [Example 102] | 100 to 1000 | 1 to 10
14 | CC(C)OC(=O)NCCN(C)C[C@@H]1C[C@H]1c1c[nH]c2ccc(F)cc12 (relative stereo) [Example 103] | 100 to 1000 | 1 to 10
15 | COC(=O)NCCCN(C)C[C@@H]1C[C@H]1c1c[nH]c2ccc(F)cc12 (relative stereo) [Example 104, trans-2-[5-Fluoroindol-3-yl]-1-[N,N-methyl-2-amino(methylcarbamoyl)propylaminomethyl]-cyclopropane] | 100 to 1000 | 10 to 100
16 | CCOC(=O)NCCCN(C)C[C@@H]1C[C@H]1c1c[nH]c2ccc(F)cc12 (relative stereo) [Example 105, trans-2-[5-Fluoroindol-3-yl]-1-[N,N-methyl-2-amino(ethylcarbamoyl)propylaminomethyl]-cyclopropane] | 100 to 1000 | 10 to 100
17 | CCCOC(=O)NCCCN(C)C[C@@H]1C[C@H]1c1c[nH]c2ccc(F)cc12 (relative stereo) [Example 106, trans-2-[5-Fluoroindol-3-yl]-1-[N,N-methyl-2-amino(propylcarbamoyl)propylaminomethyl]-cyclopropane] | 100 to 1000 | 10 to 100
18 | CC(C)OC(=O)NCCCN(C)C[C@@H]1C[C@H]1c1c[nH]c2ccc(F)cc12 (relative stereo) [Example 107, trans-2-[5-Fluoroindol-3-yl]-1-[N,N-methyl-2-amino(isopropylcarbamoyl)propylaminomethyl]-cyclopropane] | 100 to 1000 | 10 to 100
19 | CCN(CCNC(=O)OC)C[C@@H]1C[C@H]1c1c[nH]c2ccc(F)cc12 (relative stereo) [Example 108, trans-1-[N,N-Ethyl-2-amino(methylcarbamoyl)ethylaminomethyl]-2-[5-fluoroindol-3-yl]-cyclopropane] | 100 to 1000 | 10 to 100
20 | CCOC(=O)NCCN(CC)C[C@@H]1C[C@H]1c1c[nH]c2ccc(F)cc12 (relative stereo) [Example 109] | 100 to 1000 | 1 to 10
21 | CCCOC(=O)NCCN(CC)C[C@@H]1C[C@H]1c1c[nH]c2ccc(F)cc12 (relative stereo) [Example 110, trans-1-[N,N-Ethyl-2-amino(propylcarbamoyl)ethylaminomethyl]-2-[5-fluoroindol-3-yl]-cyclopropane] | 100 to 1000 | 1 to 10
22 | CCN(CCNC(=O)OC(C)C)C[C@@H]1C[C@H]1c1c[nH]c2ccc(F)cc12 (relative stereo) [Example 111] | 10 to 100 | 1 to 10
23 | CCN(CCCNC(=O)OC)C[C@@H]1C[C@H]1c1c[nH]c2ccc(F)cc12 (relative stereo) [Example 112, trans-1-[N,N-Ethyl-2-amino(methylcarbamoyl)propylaminomethyl]-2-[5-fluoroindol-3-yl]-cyclopropane] | 100 to 1000 | 10 to 100
24 | CCOC(=O)NCCCN(CC)C[C@@H]1C[C@H]1c1c[nH]c2ccc(F)cc12 (relative stereo) [Example 113] | 100 to 1000 | 10 to 100
25 | CCCOC(=O)NCCCN(CC)C[C@@H]1C[C@H]1c1c[nH]c2ccc(F)cc12 (relative stereo) [Example 114, trans-1-[N,N-Ethyl-2-amino(propylcarbamoyl)propylaminomethyl]-2-[5-fluoroindol-3-yl]-cyclopropane] | 100 to 1000 | 10 to 100

Reference: US6822100B2 (Bristol-Myers Squibb Company, priority 2001, dated 2004)
